# Test results reported in PubChem BioAssay (NCI).
#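 1) Cells in 96-well plates. 2) Compound, 48 h, 5 concentrations. 3) Linear interpolation between surrounding doses. 4) Unreached endpoint = highest concentration. TGI: concentration producing complete growth inhibition.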
# Assays:
# Experiment in all cases: NCI tumour cell line growth inhibition, 48 h
# [1] = tested on: SNB-75 CNS
# [2] = tested on: SK-OV-3 ovarian
# [3] = tested on: SF-268 CNS
# [4] = tested on: MOLT-4 leukemia
# [5] = tested on: SK-MEL-2 melanoma
# [6] = tested on: CAKI-1 renal
# [7] = tested on: OVCAR-8 ovarian
# [8] = tested on: LOX IMVI melanoma
# [9] = tested on: OVCAR-4 ovarian
# [10] = tested on: KM12 colon
# [11] = tested on: A549 NSCLC
# [12] = tested on: M14 melanoma
# [13] = tested on: RXF 393 renal
# [14] = tested on: SR leukemia
# [15] = tested on: DLD-1 colon
# [16] = tested on: SF-295 CNS
# [17] = tested on: DMS 273 small cell lung
# [18] = tested on: KM20L2 colon
# [19] = tested on: HCC-2998 colon
# [20] = tested on: SW-620 colon
# [21] = tested on: NCI-H226 lung
# [22] = tested on: EKVX NSCLC
# [23] = tested on: 786-0 renal
# [24] = tested on: HOP-92 NSCLC
# [25] = tested on: SK-MEL-5 melanoma
# [26] = tested on: NCI-H522 lung
# [27] = tested on: OVCAR-5 ovarian
# [28] = tested on: UACC-257 melanoma
# [29] = tested on: NCI-H23 lung
# [30] = tested on: SN12C renal
# [31] = tested on: OVCAR-3 ovarian
# [32] = tested on: HCT-15 colon
# [33] = tested on: A498 renal
# [34] = tested on: MALME-3M melanoma
# [35] = tested on: SNB-78 CNS
# [36] = tested on: SF-539 CNS
# [37] = tested on: CCRF-CEM leukemia
# [38] = tested on: K-562 leukemia
# [39] = tested on: NCI-H460 lung
# [40] = tested on: ACHN renal
# [41] = tested on: U251 CNS
# [42] = tested on: IGROV1 ovarian
# [43] = tested on: UO-31 renal
# [44] = tested on: TK-10 renal
# [45] = tested on: UACC-62 melanoma
# [46] = tested on: LXFL 529 NSCLC
# [47] = tested on: HT29 colon
# [48] = tested on: HOP-62 NSCLC
# [49] = tested on: SK-MEL-28 melanoma
# [50] = tested on: NCI/ADR-RES ovarian
# [51] = tested on: T-47D breast
# [52] = tested on: HCT-116 colon
# [53] = tested on: RPMI-8226 leukemia
# [54] = tested on: MDA-MB-435
# [55] = tested on: MDA-N
# [56] = tested on: SNB-19 CNS
# [57] = tested on: HL-60(TB) leukemia
# [58] = tested on: M19-MEL melanoma
# [59] = tested on: HS 578T breast
# [60] = tested on: COLO 205 colon
# [61] = tested on: XF 498 CNS
# [62] = tested on: DU-145 prostate
# [63] = tested on: BT-549 breast
# [64] = tested on: MDA-MB-231 breast
# [65] = tested on: DMS 114 small cell lung
# [66] = tested on: PC-3 prostate
# [67] = tested on: HOP-18 NSCLC
# [68] = tested on: MCF7 breast
structure (smiles),measurement,setting,value
COc1cc(Nc2nc3ccc(C(F)(F)F)cc3nc2-c2ccccc2)cc(OC)c1OC,TGI,[1],> 100 µM
same,TGI,[2],> 100 µM
same,TGI,[3],> 100 µM
same,TGI,[4],> 100 µM
same,TGI,[5],> 100 µM
same,TGI,[6],79.4 µM
same,TGI,[7],> 100 µM
same,TGI,[8],15.5 µM
same,TGI,[9],> 100 µM
same,TGI,[10],> 100 µM
same,TGI,[11],> 100 µM
same,TGI,[12],> 100 µM
same,TGI,[13],> 100 µM
same,TGI,[14],> 100 µM
same,TGI,[15],> 100 µM
same,TGI,[16],11.6 µM
same,TGI,[17],> 100 µM
same,TGI,[18],26 µM
same,TGI,[19],25.9 µM
same,TGI,[20],> 100 µM
same,TGI,[21],65.6 µM
same,TGI,[22],79.7 µM
same,TGI,[23],> 100 µM
same,TGI,[24],6.17 µM
same,TGI,[25],59.4 µM
same,TGI,[26],93.6 µM
same,TGI,[27],53.1 µM
same,TGI,[28],85 µM
same,TGI,[29],> 100 µM
same,TGI,[30],> 100 µM
same,TGI,[31],> 100 µM
same,TGI,[32],> 100 µM
same,TGI,[33],78 µM
same,TGI,[34],> 100 µM
same,TGI,[35],> 100 µM
same,TGI,[36],> 100 µM
same,TGI,[37],> 100 µM
same,TGI,[38],> 100 µM
same,TGI,[39],32.3 µM
same,TGI,[40],> 100 µM
same,TGI,[41],> 100 µM
same,TGI,[42],> 100 µM
same,TGI,[43],55.7 µM
same,TGI,[44],> 100 µM
same,TGI,[45],> 100 µM
same,TGI,[46],> 100 µM
same,TGI,[47],5.31 µM
same,TGI,[48],> 100 µM
same,TGI,[49],> 100 µM
CS(=O)(=O)OCCN(CCOS(C)(=O)=O)c1ccc(C=O)cc1,TGI,[1],13.1 µM
same,TGI,[2],7.18 µM
same,TGI,[50],> 80.8 µM
same,TGI,[3],43.5 µM
same,TGI,[4],4.84 µM
same,TGI,[5],42.8 µM
same,TGI,[6],2.08 µM
same,TGI,[7],32.4 µM
same,TGI,[51],> 71.6 µM
same,TGI,[8],21.1 µM
same,TGI,[9],37.6 µM
same,TGI,[52],> 100 µM
same,TGI,[53],75.4 µM
same,TGI,[54],24.6 µM
same,TGI,[10],29.5 µM
same,TGI,[11],35.8 µM
same,TGI,[12],30.4 µM
same,TGI,[55],27.2 µM
same,TGI,[13],1.72 µM
same,TGI,[14],14.7 µM
same,TGI,[56],65.5 µM
same,TGI,[15],> 84 µM
same,TGI,[16],25.9 µM
same,TGI,[57],35.4 µM
same,TGI,[17],13.5 µM
same,TGI,[18],17.8 µM
same,TGI,[19],8.36 µM
same,TGI,[58],30.2 µM
same,TGI,[20],68.8 µM
same,TGI,[21],13.4 µM
same,TGI,[22],25.4 µM
same,TGI,[23],7.86 µM
same,TGI,[59],58 µM
same,TGI,[60],9.58 µM
same,TGI,[24],44.5 µM
same,TGI,[61],5.85 µM
same,TGI,[25],29.1 µM
same,TGI,[26],0.553 µM
same,TGI,[62],7.17 µM
same,TGI,[63],> 69.8 µM
same,TGI,[64],67.6 µM
same,TGI,[27],14.4 µM
same,TGI,[28],39.2 µM
same,TGI,[29],12.6 µM
same,TGI,[65],28.2 µM
same,TGI,[30],41.3 µM
same,TGI,[31],28.5 µM
same,TGI,[32],47.4 µM
same,TGI,[33],4.43 µM
same,TGI,[34],26.7 µM
same,TGI,[66],86 µM
same,TGI,[67],48.8 µM
same,TGI,[35],> 100 µM
same,TGI,[36],17.4 µM
same,TGI,[37],46.2 µM
same,TGI,[38],> 100 µM
same,TGI,[39],3.36 µM
same,TGI,[40],2.69 µM
same,TGI,[41],45.7 µM
same,TGI,[42],43.3 µM
same,TGI,[43],3.09 µM
same,TGI,[44],17 µM
same,TGI,[45],14.5 µM
same,TGI,[46],47.4 µM
same,TGI,[47],57.9 µM
same,TGI,[48],24 µM
same,TGI,[49],52.6 µM
same,TGI,[68],> 75.9 µM
Cc1ccc2c(c1)CNc1ccc(C)cc1CN2,TGI,[1],> 100 µM
same,TGI,[2],> 100 µM
same,TGI,[3],> 100 µM
same,TGI,[4],> 100 µM
same,TGI,[5],> 100 µM
same,TGI,[6],> 100 µM
same,TGI,[7],> 100 µM
same,TGI,[8],> 100 µM
same,TGI,[9],> 100 µM
same,TGI,[52],> 100 µM
same,TGI,[53],> 100 µM
same,TGI,[10],> 100 µM
same,TGI,[11],> 100 µM
same,TGI,[12],> 100 µM
same,TGI,[14],> 100 µM
same,TGI,[15],> 100 µM
same,TGI,[16],> 100 µM
same,TGI,[57],> 100 µM
same,TGI,[17],> 100 µM
same,TGI,[58],> 100 µM
same,TGI,[20],> 100 µM
same,TGI,[21],> 100 µM
same,TGI,[22],> 100 µM
same,TGI,[23],> 100 µM
same,TGI,[60],> 100 µM
same,TGI,[24],> 100 µM
same,TGI,[61],> 100 µM
same,TGI,[25],> 100 µM
same,TGI,[26],> 100 µM
same,TGI,[27],> 100 µM
same,TGI,[29],> 100 µM
same,TGI,[65],> 100 µM
same,TGI,[30],> 100 µM
same,TGI,[31],> 100 µM
same,TGI,[32],> 100 µM
same,TGI,[67],> 100 µM
same,TGI,[35],> 100 µM
same,TGI,[36],> 100 µM
same,TGI,[37],> 100 µM
same,TGI,[38],> 100 µM
same,TGI,[39],> 100 µM
same,TGI,[40],> 100 µM
same,TGI,[41],> 100 µM
same,TGI,[42],> 100 µM
same,TGI,[43],> 100 µM
same,TGI,[45],> 100 µM
same,TGI,[46],> 100 µM
same,TGI,[47],> 100 µM
same,TGI,[48],> 100 µM
